{"source": "patent US8580811B2", "about": "(Ligand Pharmaceuticals Incorporated, priority 2005, dated 2013)", "note": "pKi: −log10 of the molar value.", "data": [{"molecular_target": "T1, human AR (Homo sapiens, UniProt P10275)", "T1 construct": "expressed in transfected cells; host or cells: COS-1 cells", "T1 sequence (P10275 1-920)": "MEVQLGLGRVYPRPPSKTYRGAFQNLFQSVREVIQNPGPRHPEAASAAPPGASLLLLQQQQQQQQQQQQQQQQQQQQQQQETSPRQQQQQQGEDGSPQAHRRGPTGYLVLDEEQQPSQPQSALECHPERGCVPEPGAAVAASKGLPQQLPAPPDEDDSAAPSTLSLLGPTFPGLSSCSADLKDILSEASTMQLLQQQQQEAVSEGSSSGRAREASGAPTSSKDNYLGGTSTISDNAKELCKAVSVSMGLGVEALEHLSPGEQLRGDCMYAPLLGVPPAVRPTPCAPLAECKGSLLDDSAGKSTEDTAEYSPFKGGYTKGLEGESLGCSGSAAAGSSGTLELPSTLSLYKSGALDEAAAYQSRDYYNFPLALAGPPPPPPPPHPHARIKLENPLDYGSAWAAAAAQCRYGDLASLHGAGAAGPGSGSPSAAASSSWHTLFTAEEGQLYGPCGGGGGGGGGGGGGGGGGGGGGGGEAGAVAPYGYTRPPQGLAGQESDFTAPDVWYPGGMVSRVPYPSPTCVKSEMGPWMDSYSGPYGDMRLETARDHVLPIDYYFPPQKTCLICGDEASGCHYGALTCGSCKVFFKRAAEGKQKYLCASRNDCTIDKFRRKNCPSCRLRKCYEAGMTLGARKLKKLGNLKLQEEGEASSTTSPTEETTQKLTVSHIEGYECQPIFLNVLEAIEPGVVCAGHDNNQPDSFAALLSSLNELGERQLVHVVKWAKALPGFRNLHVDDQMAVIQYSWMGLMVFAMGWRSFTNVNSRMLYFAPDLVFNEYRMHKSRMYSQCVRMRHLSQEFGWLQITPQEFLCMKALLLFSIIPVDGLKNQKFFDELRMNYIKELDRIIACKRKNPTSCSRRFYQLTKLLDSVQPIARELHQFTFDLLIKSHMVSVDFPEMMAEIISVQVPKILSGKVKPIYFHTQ", "assay": "IR Binding Assay: whole cell competitive binding of test compounds against 3H-DHT in COS-1 cells transfected with pRShAR", "conditions": "not given", "description": "(§1) For the whole cell binding assay, COS-1 cells in 96-well microtiter plates including DMEM-10% FBS were transfected as described above with the following plasmid DNA: pRShAR (2 ng/well), pRS-β-Gal (50 ng/well) and pGEM (48 ng/well). Six hours after transfection, media was removed, the cells were washed with PBS and fresh media was added. The next day, the media was changed to DMEM-serum free to remove any endogenous ligand that might be complexed with the receptor in the cells.\n(§2) After 24 hours in serum-free media, either a saturation analysis to determine the Kd for tritiated dihydrotestosterone (^3H-DHT) on human AR or a competitive binding assay to evaluate the ability of test compounds to compete with ^3H-DHT for AR was performed. […] For the competitive binding assay, media including 1 nM ^3H-DHT and test compounds in concentrations ranging from 10^−10 to 10^−6 M were added to the cells. Three replicates were used for each sample. After three hours at 37° C., an aliquot of the total binding media at each concentration of ^3H-DHT was removed to estimate the amount of free ^3H-DHT. The remaining media was removed, the cells were washed three times with PBS to remove unbound ligand, and cells were lysed with a Triton X-100-based buffer. The lysates were assayed for amount of bound ^3H-DHT and β-Gal activity using a scintillation counter or spectrophotometer, respectively.\n(§3) For the saturation analyses, the difference between the total binding and the nonspecific binding, normalized by the β-Gal rate, was defined as specific binding. The specific binding was evaluated by Scatchard analysis to determine the Kd for ^3H-DHT. See e.g., D. Rodbard, “Mathematics and statistics of ligand assays: an illustrated guide” In: J. Langon and J. J. Clapp, eds., Ligand Assay, Masson Publishing U.S.A., Inc., New York, pp. 45-99, (1981), the disclosure of which is herein incorporated by reference. For the competition studies, the data was plotted as the amount of ^3H-DHT (% of control in the absence of test compound) remaining over the range of the dose-response curve for a given compound. […] The Ki values were determined by application of the Cheng-Prusoff equation to the IC50 values, where:\n(§4) [formula] After correcting for non-specific binding, IC50 values were determined. […] The IC50 value was determined graphically from a log-logit plot of the data. The Ki values were determined by application of the Cheng-Prusoff equation to the IC50 values, the labeled ligand concentration and the Kd of the labeled ligand. see e.g., Cheng, Y. C. and Prusoff, W. H. Biochem. Pharmacol. 22:3099 (1973).", "values": [{"smiles": "CCC1C(C)c2c(ccc3[nH]c(=O)cc(C(F)(F)F)c23)N1CCCC(F)(F)F", "note": "(racemic) [Compound 181, (±)-2-Ethyl-1-methyl-3-(4,4,4-trifluorobutyl)-9-trifluoromethyl-1,2,3,6-tetrahydro-pyrrolo[3,2-f]quinolin-7-one]", "pKi": "8.00 to 8.30"}, {"smiles": "Cc1c(C)n(CC(O)CO)c2ccc3[nH]c(=O)cc(C(F)(F)F)c3c12", "note": "(centres unmarked) [Compound 293, 3-(2,3-dihydroxypropyl)-1,2-dimethyl-9-trifluoromethyl-3,6-dihydro-pyrrolo[3,2-f]-quinolin-7-one]", "pKi": "< 8.00"}, {"smiles": "Cc1c(C)n(CC(F)F)c2ccc3[nH]c(=O)cc(Cl)c3c12", "note": "[Compound 191, 9-Chloro-3-(2,2-difluoroethyl)-1,2-dimethyl-3,6-dihydro-pyrrolo[3,2-f]quinolin-7-one]", "pKi": "> 8.30"}, {"smiles": "Cc1c(C)n(CCCC(F)(F)F)c2ccc3[nH]c(=O)cc(C(F)(F)F)c3c12", "note": "[Compound 227, 1,2-Dimethyl-3-(4,4,4-trifluorobutyl)-9-trifluoromethyl-3,6-dihydro-pyrrolo[3,2-f]-quinolin-7-one]", "pKi": "> 8.30"}, {"smiles": "Cc1c(-c2ccc(F)cc2F)[nH]c2ccc3[nH]c(=O)cc(Cl)c3c12", "note": "[Compound 117, 9-Chloro-2-(2,4-difluorophenyl)-1-methyl-3,6-dihydro-pyrrolo[3,2-f]quinolin-7-one]", "pKi": "> 8.30"}, {"smiles": "CC1c2c(ccc3[nH]c(=O)cc(Cl)c23)N(CC(F)(F)F)C1c1ccccc1", "note": "(racemic) [Compound 130, (±)-9-Chloro-1-methyl-2-phenyl-3-(2,2,2-trifluoro-ethyl)-1,2,3,6-tetrahydro-pyrrolo[3,2-f]-quinolin-7-one]", "pKi": "8.00 to 8.30"}, {"smiles": "CC(=O)OCCn1c(C)c(C)c2c3c(C(F)(F)F)cc(=O)[nH]c3ccc21", "note": "[Compound 241, 3-(2-Acetoxyethyl)-1,2-Dimethyl-9-trifluoromethyl-3,6-dihydro-pyrrolo[3,2-f]quinolin-7-one]", "pKi": "8.00 to 8.30"}, {"smiles": "O=c1cc(Cl)c2c3c(ccc2[nH]1)N(CC(F)(F)F)[C@@H]1CCC[C@H]31", "note": "[Compound 162, (+)-9-Chloro-3-(2,2,2-trifluoroethyl)-1,2-trimethylene-1,2,3,6-tetrahydropyrrolo[3,2-f]quinolin-7-one]", "pKi": "> 8.30"}, {"smiles": "CC1Nc2ccc3[nH]c(=O)cc(Cl)c3c2C1C", "note": "(racemic) [Compound 140, (±)-9-Chloro-1,2-dimethyl-1,2,3,6-tetrahydro-pyrrolo[3,2-f]quinolin-7-one]", "pKi": "< 8.00"}, {"smiles": "CCC1C(C)c2c(ccc3[nH]c(=O)cc(Cl)c23)N1CC(F)(F)C(F)(F)F", "note": "(racemic) [Compound 177, (±)-9-Chloro-2-ethyl-1-methyl-3-(2,2,3,3,3-pentafluoropropyl)-1,2,3,6-tetrahydro-pyrrolo[3,2-f]quinolin-7-one]", "pKi": "> 8.30"}, {"smiles": "CCc1c(C)c2c3c(Cl)cc(=O)[nH]c3ccc2n1CC(O)CO", "note": "(centres unmarked) [Compound 297, 9-Chloro-3-(2,3-dihydroxypropyl)-2-ethyl-1-methyl-3,6-dihydro-pyrrolo[3,2-f]-quinolin-7-one]", "pKi": "< 8.00"}, {"smiles": "Cc1c(C)n(CC(O)CO)c2ccc3[nH]c(=O)cc(Cl)c3c12", "note": "(centres unmarked) [Compound 290, 9-Chloro-3-(2,3-dihydroxypropyl)-1,2-dimethyl-3,6-dihydro-pyrrolo[3,2-f]-quinolin-7-one]", "pKi": "< 8.00"}, {"smiles": "CCc1c(C)c2c3c(C(F)(F)F)cc(=O)[nH]c3ccc2n1CCC(F)(F)F", "note": "[Compound 226, 2-Ethyl-1-methyl-9-trifluoromethyl-3-(3,3,3-trifluoropropyl)-3,6-dihydro-pyrrolo[3,2-f]-quinolin-7-one]", "pKi": "> 8.30"}, {"smiles": "Cc1cc2c3c(Cl)cc(=O)[nH]c3ccc2n1CC(F)(F)F", "note": "[Compound 186, 9-Chloro-2-methyl-3-(2,2,2-trifluoroethyl)-3,6-dihydro-pyrrolo[3,2-f]quinolin-7-one]", "pKi": "8.00 to 8.30"}, {"smiles": "Cc1c(-c2cccs2)n(CC(F)(F)C(F)(F)F)c2ccc3[nH]c(=O)cc(Cl)c3c12", "note": "[Compound 259, 9-Chloro-1-methyl-3-(2,2,3,3,3-pentafluoropropyl)-2-thiophen-2-yl-3,6-dihydro-pyrrolo[3,2-f]quinolin-7-one]", "pKi": "< 8.00"}, {"smiles": "Cc1c(-c2ncco2)n(CC(F)(F)F)c2ccc3[nH]c(=O)cc(Cl)c3c12", "note": "[Compound 257, 9-Chloro-1-methyl-2-(2-oxazolyl)-3-(2,2,2-trifluoroethyl)-3,6-dihydro-pyrrolo[3,2-f]-quinolin-7-one]", "pKi": "> 8.30"}, {"smiles": "Cc1c(C)n(CCCF)c2ccc3[nH]c(=O)cc(C(F)(F)F)c3c12", "note": "[Compound 248, 1,2-Dimethyl-3-(3-fluoropropyl)-9-trifluoromethyl-3,6-dihydro-pyrrolo[3,2-f]quinolin-7-one]", "pKi": "> 8.30"}, {"smiles": "Cc1c(-c2ccccc2)n(CCC(F)(F)F)c2ccc3[nH]c(=O)cc(Cl)c3c12", "note": "[Compound 217, 9-Chloro-1-methyl-2-phenyl-3-(3,3,3-trifluoropropyl)-3,6-dihydropyrrolo[3,2-f]-quinolin-7-one]", "pKi": "> 8.30"}, {"smiles": "CC1c2c(ccc3[nH]c(=O)cc(Cl)c23)N(CC(F)(F)F)C1c1cc(C(F)(F)F)cc(C(F)(F)F)c1", "note": "(racemic) [Compound 158, (±)-9-Chloro-2-(3,5-bis(trifluoromethyl)phenyl)-1-methyl-3-(2,2,2-trifluoroethyl)-1,2,3,6-tetrahydropyrrolo[3,2-f]quinolin-7-one]", "pKi": "> 8.30"}, {"smiles": "CCC1c2c(ccc3[nH]c(=O)cc(Cl)c23)N(CC(F)(F)F)C1c1cccs1", "note": "(racemic) [Compound 164, (±)-9-Chloro-1-ethyl-2-(thien-2-yl)-3-(2,2,2-trifluoroethyl)-1,2,3,6-tetrahydro-pyrrolo[3,2-f]-quinolin-7-one]", "pKi": "> 8.30"}, {"smiles": "Cc1c(-c2ccccc2)n(C[C@H](O)C(F)(F)F)c2ccc3[nH]c(=O)cc(Cl)c3c12", "note": "[Compound 271, (S)-9-Chloro-1-methyl-2-phenyl-3-(3,3,3-trifluoro-2-hydroxy-propyl)-3,6-dihydro-pyrrolo[3,2-f]quinolin-7-one]", "pKi": "> 8.30"}, {"smiles": "Cc1c(-c2ccc(F)cc2)[nH]c2ccc3[nH]c(=O)cc(Cl)c3c12", "note": "[Compound 116, 9-Chloro-2-(4-fluorophenyl)-1-methyl-3,6-dihydro-pyrrolo[3,2-f]quinolin-7-one]", "pKi": "> 8.30"}, {"smiles": "CC1c2c(ccc3[nH]c(=O)cc(Cl)c23)N(CC(F)(F)C(F)(F)F)C1C", "note": "(racemic) [Compound 167, (±)-9-Chloro-1,2-dimethyl-3-(2,2,3,3,3-pentafluoropropyl)-1,2,3,6-tetrahydro-pyrrolo[3,2-f]-quinolin-7-one]", "pKi": "> 8.30"}, {"smiles": "Cc1c(CCCI)c2c3c(Cl)cc(=O)[nH]c3ccc2n1CC(F)(F)C(F)(F)F", "note": "[Compound 270, 9-Chloro-1-(3-iodopropyl)-2-methyl-3-(2,2,3,3,3-pentafluoropropyl)-3,6-dihydro-pyrrolo[3,2-f]quinolin-7-one]", "pKi": "< 8.00"}]}, {"molecular_target": "T1, human AR", "assay": "IR Binding Assay: whole cell competitive binding of test compounds against 3H-DHT in COS-1 cells transfected with pRShAR", "conditions": "competition with 1 nM 3H-DHT, transfected COS-1 cells, 3 h at 37° C., Cheng-Prusoff from IC50; read-out: Ki", "description": "as §1, §2, §3, §4", "values": [{"smiles": "COc1ccc(-c2[nH]c3ccc4[nH]c(=O)cc(Cl)c4c3c2C)cc1", "note": "[Compound 115, 9-Chloro-2-(4-methoxy-phenyl)-1-methyl-3,6-dihydro-pyrrolo[3,2-f]quinolin-7-one]", "pKi": "< 8.00"}, {"smiles": "CC(=O)c1[nH]c2ccc3[nH]c(=O)cc(Cl)c3c2c1C", "note": "[Compound 121, 2-Acetyl-9-chloro-1-methyl-3,6-dihydro-pyrrolo[3,2-f]quinolin-7-one]", "pKi": "< 8.00"}]}]}
